# Reference: publication PMC9495004, “In Vitro Biological Activity of Natural Products from the Endophytic Fungus Paraboeremia selaginellae against Toxoplasma gondii” (Antibiotics, 2022)
# pIC50: −log10 of the molar value. Read-outs that look alike come from different tables or passages of the source.
# Tests used:
# T. gondii strain ME49 = assay: T. gondii proliferation assay (3H-uracil incorporation); assay type: cell-based, Toxoplasma gondii
# S. aureus ATCC 700699 = assay: Minimal inhibitory concentration assay (BacTiter Glo), S. aureus; assay type: cell-based; conditions: Staphylococcus aureus, read-out: MIC90 S. aureus ATCC 700699
# P. aeruginosa ATCC 87110 = assay: Minimal inhibitory concentration assay (BacTiter Glo), P. aeruginosa; assay type: cell-based; conditions: Pseudomonas aeruginosa, read-out: MIC90 P. aeruginosa ATCC 87110
# M. tuberculosis H37Rv = assay: Minimal inhibitory concentration, resazurin reduction assay, M. tuberculosis; assay type: cell-based, Mycobacterium tuberculosis; conditions: for MIC90: Mycobacterium tuberculosis, H37RV, 120 h, read-out: MIC90 M. tuberculosis H37Rv
# [1] = MTT cell viability assay against Hs27 cells; assay type: cell-based; conditions: human, Hs27 fibroblast cells, >100 µM indicates no activity, read-out: CC50 against human fibroblasts Hs27
# Description: Figure 4 Effect of the natural products on the metabolic activity of Hs27 cells via MTT assay. Hs27 cells were plated in 96-well plates and grown to confluence prior to incubation at 37 °C for 24 h with the natural products in the concentration range of […]. The cultures were incubated with 10 μL of the 12 mM MTT stock solution for approximately 4 h. Afterwards, 100 μL of SDS dissolved in HCl was added to each well and incubated again for 4 h at 37 °C. Finally, the absorbance was measured at 570 nm by spectrophotometry. Values shown in (A–F) represent the means of three independent experiments each done in duplicate (n = 6) ± SEM. Cytotoxicity in Hs27 cells of NK-A 17e233 (A); 1,2-benzenediol, 3-(4-hydroxy-2-methoxy-6-methylphenoxy)-5-methyl-(ACI) (B); cyperin (C); ES-242-1 (D); ES-242-3 (E); 5S,6S-phomalactone (F).
# The 3-[4,5-dimethylthiazole-2-yl]-2,5-diphenyltetrazolium bromide (MTT) test was used to assess cell viability of the isolated active compounds against Hs27 cells. The MTT assay is a colorimetric reaction based on the enzymatic reduction of MTT to MTT-formazan, which is catalyzed by mitochondrial succinate dehydrogenase.
# In brief, Hs27 cells were seeded 96-well plates in a monolayer in Iscove’s modified Dulbecco’s medium (Gibco–Thermo Fisher Scientific, Braunschweig, Germany) and incubated at 37 °C with different concentrations of the tested natural products (1.56, 3,12, 6.25, 12,5, 25, 50, 100 µM) in the culture media. Staurosporine ([…], 0.25, 0.5, 1 µM), a well-known cytotoxicity-inducing kinase inhibitor [40], untreated Hs27 cells, and DMSO were used as controls. After 24 h, the medium of the culture was removed and replaced with 100 μL of DMEM without red phenol (Gibco–Thermo Fisher Scientific, Braunschweig, Germany) plus 10% heat-inactivated fetal bovine serum (Invitrogen, Karlsruhe, Germany), and […] 2-mercaptoethanol (Gibco–Thermo Fisher Scientific, Braunschweig, Germany). Afterwards, the 12 mM MTT solution was added to each well according to the manufacturer’s instruction (Vybrant MTT Cell Proliferation Assay Kit, Thermo Fisher Scientific, Braunschweig, Germany). The OD value of each well was assayed at the wavelength of 570 nm on a microplate reader (TECAN Sunrise, Männedorf, Switzerland). The 50% cytotoxic concentration (CC50 values) of the tested natural products on Hs27 cells was calculated and all data were analyzed using Prism GraphPad version 9.2.0 software.
# [2] = system: THP-1 (human monocytic leukemia cell line); assay: Resazurin cytotoxicity assay, THP-1; assay type: cell-based; conditions: for pIC50: Homo sapiens, read-out: Mean IC50 THP1
# Description: (§1) Figure 5 Effect of the natural products on the viability of THP-1, Huh-7, and HEK-293 cells. Cytotoxic effect of NK-A17e233 (A); 1,2-benzenediol,3-(4-hydroxy-2-methoxy-6-methylphenoxy)-5-methyl-(ACI) (B); cyperin (C); ES-242-1 (D); ES-242-3 (E); 5S,6S-phomalactone (F) against the human cell lines THP-1, Huh-7, and HEK-293 as determined by resazurin assay. 100% growth control DMSO, 0% growth control cycloheximide. Values represent the means of triplicates ± SEM.
# (§2) The cytotoxicity study was carried out using the THP-1 (human monocytic leukemia cell line), Huh-7 (Human liver carcinoma cell line), and HEK293 (human embryonic kidney cell line) cell lines as described before. The THP-1 cells were cultured using RPMI 1640 medium containing 2 mM L-glutamine and supplemented with 10% fetal calf serum (FCS) and 1% sodium pyruvate. Huh-7 cells were cultured using a 1:1 mixture of RPMI 1640 medium containing 2 mM L-glutamine and 10% FCS medium and DMEM containing 10% FCS and 1% sodium pyruvate. The HEK-293 cells were cultured with DMEM including 2 mM L-glutamine and supplemented with 1% NE amino acids, 1% 1.0 mM sodium pyruvate and 10% FCS. All three cell lines were then incubated at 37 °C in an atmosphere of 5% CO2 under humid conditions for 2 weeks while renewing the medium twice weekly. Subsequently, the cells were suspended and adjusted to a density of 2 × 10^5 cells/mL. In a 96-well flat-bottom microtiter plate, the cells were adjusted to a total volume of 100 μL containing 2-fold serial dilutions of the tested compounds A–F ranging from 100 to 1.56 μM. Cycloheximide (4, 2, 1, 0.5, 0.25, 0.13, 0.06, 0.03 µg/mL) was used as a positive control. After an incubation time of 48 h at 37 °C in an atmosphere of 5% CO2 under humid conditions, 10 μL resazurin solution (100 μg/mL) was added to each well and incubated for another 4 h. The fluorescence was then quantified using a Tecan Infinite 200pro microplate reader (excitation 540 nm, emission 590 nm). The residual growth was calculated relative to non-inoculated conditions (0% growth) and controls treated with DMSO (100% growth).
# [3] = system: Huh-7 (Human liver carcinoma cell line); assay: Resazurin cytotoxicity assay, Huh-7; assay type: cell-based; conditions: for pIC50: Homo sapiens, read-out: Mean IC50 Huh-7
# Description: as §1, §2
# [4] = system: HEK293 (human embryonic kidney cell line); assay: Resazurin cytotoxicity assay, HEK-293; assay type: cell-based; conditions: for pIC50: Homo sapiens, read-out: Mean IC50 HEK-293
# Description: as §1, §2
# Plasmodium falciparum = conditions: cited from earlier work
# [5] = Hs27 host cells, 48 h treatment, 3H-uracil incorporation
# [6] = ATCC700699, 24 h, >100 µM indicates no activity
# [7] = ATCC87110, 24 h, >100 µM indicates no activity
# [8] = 5 days, resazurin, >100 µM indicates no activity
# [9] = Toxoplasma gondii, HS27, Hs27 host cells, 48 h treatment, 3H-uracil incorporation, read-out: IC50 against T. gondii strain ME49 (proliferation)
# [10] = THP-1, resazurin assay, 48 h, >100 µM indicates no activity
# [11] = Huh-7, resazurin assay, 48 h, >100 µM indicates no activity
# [12] = HEK293, resazurin assay, 48 h, >100 µM indicates no activity
# [13] = reported activity, read-out: IC50 against P. falciparum
# [14] = Toxoplasma gondii, HS27, read-out: IC50 against T. gondii strain ME49 (proliferation)
# [15] = resazurin assay, 48 h, >100 µM indicates no activity
SMILES,MIC90 (S. aureus ATCC 700699; [6]),MIC90 (P. aeruginosa ATCC 87110; [7]),MIC90 M. tuberculosis H37Rv (M. tuberculosis H37Rv; [8]),MIC90 (M. tuberculosis H37Rv; [8]),pIC50 (T. gondii strain ME49; [9]),CC50 at 24 h [1],"pIC50 [2, 10]","pIC50 [3, 11]","pIC50 [4, 12]",pIC50 (T. gondii strain ME49; [14]),other results
"CCC(C)CC(C)/C=C(C)/C=C/CC(C)C(O)C(C)/C=C(C)/C=C/C(O)C(C)(C)c1cc(O)c([C@H]2O[C@@H](CO)C[C@@H](O)[C@@H]2O)c(=O)o1 (stereo partly shown) [H, S 39163/F-1]",> 100 µM,> 100 µM,no inhibitory effect,> 100 µM,–,–,–,–,–,–,IC50 against T. gondii strain ME49 (proliferation) (T. gondii strain ME49; [5]): Not active
"COc1cc(OC)c2c(O)c3c(c(-c4c5c(c(O)c6c(OC)cc(OC)cc46)CO[C@@H](C)[C@H]5OC(C)=O)c2c1)C[C@@H](C)OC3 [D, ES-242-1]",> 100 µM,> 100 µM,–,50 µM,5.13,> 100 µM,< 4.00,< 4.00,4.03,–,pIC50 (Plasmodium falciparum; [13]): 5.07
"COc1cc(C)c(Oc2cc(C)cc(O)c2)c(O)c1 [Compound C, cyperin]",–,–,no inhibitory effect,–,–,> 100 µM,–,–,–,4.57,"pIC50 ([2]; THP-1, 48 h): < 4.00; pIC50 ([3]; Huh-7, 48 h): < 4.00; pIC50 ([4]; HEK293, 48 h): < 4.00; MIC90 (S. aureus ATCC 700699; ATCC700699, 24 h): > 100 µM; MIC90 (P. aeruginosa ATCC 87110; ATCC87110, 24 h): > 100 µM; MIC90 (M. tuberculosis H37Rv): > 100 µM"
"CCc1nc(N)nc(N)c1-c1ccc(Cl)cc1 [pyrimethamine, reference compound]",–,–,–,–,–,44 µM,–,–,–,7.22,–
"Cc1cc(O)c(C)c(=O)o1 [G, methyltriaceticlactone]",> 100 µM,> 100 µM,no inhibitory effect,> 100 µM,–,–,–,–,–,–,IC50 against T. gondii strain ME49 (proliferation) (T. gondii strain ME49; [5]): Not active
"COc1cc(O)cc(C)c1Oc1cc(C)cc(O)c1O [B, 3-(4-Hydroxy-2-methoxy-6-methylphenoxy)-5-methylbenzene-1,2-diol]",> 100 µM,> 100 µM,no inhibitory effect,> 100 µM,4.71,> 100 µM,< 4.00,< 4.00,< 4.00,–,"pIC50 (T. gondii strain ME49; Hs27 host cells, 48 h treatment, 3H-uracil incorporation, read-out: IC50 against T. gondii strain ME49 (proliferation)): 4.65"
"C/C=C/[C@@H]1OC(=O)C=C[C@@H]1O [F, 5S,6S-phomalactone]",> 100 µM,100 µM,no inhibitory effect,–,–,81 µM,4.61,4.00,4.17,5.29,"Mean IC50 Huh-7 [3, 15]: no or weak cytotoxic effects; Mean IC50 HEK-293 [4, 15]: no or weak cytotoxic effects; MIC90 (M. tuberculosis H37Rv): > 100 µM; pIC50 (Plasmodium falciparum; previous report, read-out: IC50 against Plasmodium falciparum): 4.07"
"COc1cc(C)c(Oc2cc(C)cc(O)c2O)c(O)c1 [Compound A, NK-A 17e233]",> 100 µM,> 100 µM,no inhibitory effect,> 100 µM,5.24,> 100 µM,< 4.00,< 4.00,< 4.00,–,–
"COc1cc(OC)c2c(O)c3c(c(-c4c5c(c(O)c6c(OC)cc(OC)cc46)CO[C@@H](C)[C@H]5OC(C)=O)c2c1)C(O)[C@@H](C)OC3 (stereo partly shown) [E, ES-242-3]",> 100 µM,> 100 µM,–,100 µM,4.74,> 100 µM,4.66,4.89,4.77,–,"Mean IC50 THP1 [2, 15]: moderate cytotoxic activity; Mean IC50 Huh-7 [3, 15]: moderate cytotoxic activity; Mean IC50 HEK-293 [4, 15]: moderate cytotoxic activity; pIC50 (Plasmodium falciparum; [13]): 4.88"
